Measured values: publication PMC6572064, “Discovery of 2-(1-(3-(4-Chloroxyphenyl)-3-oxo- propyl)pyrrolidine-3-yl)-1H-benzo[d]imidazole-4-carboxamide: A Potent Poly(ADP-ribose) Polymerase (PARP) Inhibitor for Treatment of Cancer” (Molecules, 2019)
Read-outs that look alike come from different tables or passages of the source.

Tests used:
[1] = system: MDA-MB-436 (a BRCA-1-mutated breast cancer cell line); test: Cell proliferation assay, three-day, CellTiter-Glo, MDA-MB-436; type: cell-based; conditions: Homo sapiens; for inhibition at 0.00508 µM: MDA-MB-436, MDA-MB-436, Conc. 0.00508 uM; for inhibition at 0.0152 µM: MDA-MB-436, MDA-MB-436, Conc. 0.0152 uM; for inhibition at 0.0457 µM: MDA-MB-436, MDA-MB-436, Conc. 0.0457 uM; for inhibition at 0.41 µM: MDA-MB-436, MDA-MB-436, Conc. 0.41 uM; for inhibition at 1.23 µM: MDA-MB-436, MDA-MB-436, Conc. 1.23 uM; for inhibition at 3.7 µM: MDA-MB-436, MDA-MB-436, Conc. 3.70 uM; for inhibition at 11.11 µM: MDA-MB-436, MDA-MB-436, Conc. 11.11 uM; for inhibition at 33.33 µM: MDA-MB-436, MDA-MB-436, Conc. 33.33 uM; for inhibition at 100 µM: MDA-MB-436, MDA-MB-436, Conc. 100.00 uM
Experimental: (§1) A three-day assay was conducted. A cell suspension was prepared. Cell density was counted by an automated cell counter and then diluted to the required density, according to seeding density. 50 μL cells were seeded into 384-well plate in growth medium according to the plate map. The cells were incubated at 37 °C, 5% CO2 overnight.
(§2) 200× compound solution in DMSO was prepared and diluted with growth medium to 26× final concentration by addition of 26 μL 200× compounds to 174 μL growth medium. Then 2 μL of diluted compound solution was added to cells and the cell was incubated at 37 °C, 5% CO2 for 72 h.
(§3) The assay plate was equilibrated to room temperature prior to measurement. 15 μL of CellTiter-Glo Reagent was added into each well and the contents were mixed for 2 min on an orbital shaker to induce cell lysis. The cells were incubated at room temperature for 60 min to stabilize luminescent signal. Luminescence was recorded on the Envision system.

[2] = target: T1, PARP-1 (Homo sapiens, UniProt P09874); test: PARP-1 inhibition assay (PARP-1 Chemiluminescent Assay Kit, BPS Bioscience); type: biochemical; conditions: 10 nM compound
T1 construct: purchased BPS Bioscience 80569
Experimental: (§4) The PARP-1 and PARP-2 inhibition assays were performed in outsourcing, by a CRO company, Shanghai Medicilon Inc. (Shanghai, China). […] Briefly, PARP-1 or PARP-2 biotinylated substrate was incubated with compounds or solvent control at varying concentrations and an assay buffer containing the PARP-1 or PARP-2 enzyme.

[3] = system: CAPAN-1 (a BRCA-2-mutated pancreatic cancer cell line); test: Cell proliferation assay, three-day, CellTiter-Glo, CAPAN-1; type: cell-based; conditions: Homo sapiens; for inhibition at 0.00508 µM: CAPAN-1, 0.00508 uM; for inhibition at 0.0152 µM: CAPAN-1, 0.0152 uM; for inhibition at 0.0457 µM: CAPAN-1, 0.0457 uM; for inhibition at […]: CAPAN-1, 0.14 uM; for inhibition at 0.41 µM: CAPAN-1, 0.41 uM; for inhibition at 1.23 µM: CAPAN-1, 1.23 uM; for inhibition at 3.7 µM: CAPAN-1, 3.70 uM; for inhibition at 11.11 µM: CAPAN-1, 11.11 uM; for inhibition at 33.33 µM: CAPAN-1, 33.33 uM; for inhibition at 100 µM: CAPAN-1, 100.00 uM
Experimental: as §1, §2, §3

[4] = target: T2, PARP-2 (Homo sapiens, UniProt Q9UGN5); test: PARP-2 inhibition assay (PARP-2 Chemiluminescent Assay Kit, BPS Bioscience); type: biochemical; conditions: 10 nM compound
T2 construct: purchased BPS Bioscience 80552
Experimental: as §4

T1 sequence (P09874 whole entry): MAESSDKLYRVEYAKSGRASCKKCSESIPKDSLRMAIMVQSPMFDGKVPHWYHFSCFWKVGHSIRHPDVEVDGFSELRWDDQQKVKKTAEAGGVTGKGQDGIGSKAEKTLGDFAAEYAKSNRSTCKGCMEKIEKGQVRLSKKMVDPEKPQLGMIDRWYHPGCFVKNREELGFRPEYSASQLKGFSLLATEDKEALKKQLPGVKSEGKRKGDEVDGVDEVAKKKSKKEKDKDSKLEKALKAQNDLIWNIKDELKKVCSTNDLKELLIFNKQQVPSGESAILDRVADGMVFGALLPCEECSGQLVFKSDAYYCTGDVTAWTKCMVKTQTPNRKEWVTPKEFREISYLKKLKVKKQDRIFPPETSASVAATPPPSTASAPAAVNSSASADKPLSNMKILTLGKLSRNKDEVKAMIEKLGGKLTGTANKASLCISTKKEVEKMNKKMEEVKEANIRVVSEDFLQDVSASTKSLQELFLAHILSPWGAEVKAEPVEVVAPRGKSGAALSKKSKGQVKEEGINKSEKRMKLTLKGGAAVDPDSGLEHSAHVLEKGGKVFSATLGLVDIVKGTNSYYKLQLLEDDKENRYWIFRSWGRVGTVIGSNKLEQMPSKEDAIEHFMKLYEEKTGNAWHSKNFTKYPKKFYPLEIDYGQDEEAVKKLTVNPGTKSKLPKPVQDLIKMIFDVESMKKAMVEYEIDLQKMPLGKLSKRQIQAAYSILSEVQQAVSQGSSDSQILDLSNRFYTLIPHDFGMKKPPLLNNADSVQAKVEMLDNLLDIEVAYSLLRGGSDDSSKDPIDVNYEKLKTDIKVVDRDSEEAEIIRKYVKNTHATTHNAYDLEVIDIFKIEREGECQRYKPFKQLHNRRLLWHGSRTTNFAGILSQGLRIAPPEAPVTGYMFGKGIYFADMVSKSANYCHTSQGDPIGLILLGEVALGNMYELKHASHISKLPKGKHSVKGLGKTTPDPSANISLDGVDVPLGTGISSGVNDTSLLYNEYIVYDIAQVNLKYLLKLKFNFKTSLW
T2 sequence (Q9UGN5 whole entry): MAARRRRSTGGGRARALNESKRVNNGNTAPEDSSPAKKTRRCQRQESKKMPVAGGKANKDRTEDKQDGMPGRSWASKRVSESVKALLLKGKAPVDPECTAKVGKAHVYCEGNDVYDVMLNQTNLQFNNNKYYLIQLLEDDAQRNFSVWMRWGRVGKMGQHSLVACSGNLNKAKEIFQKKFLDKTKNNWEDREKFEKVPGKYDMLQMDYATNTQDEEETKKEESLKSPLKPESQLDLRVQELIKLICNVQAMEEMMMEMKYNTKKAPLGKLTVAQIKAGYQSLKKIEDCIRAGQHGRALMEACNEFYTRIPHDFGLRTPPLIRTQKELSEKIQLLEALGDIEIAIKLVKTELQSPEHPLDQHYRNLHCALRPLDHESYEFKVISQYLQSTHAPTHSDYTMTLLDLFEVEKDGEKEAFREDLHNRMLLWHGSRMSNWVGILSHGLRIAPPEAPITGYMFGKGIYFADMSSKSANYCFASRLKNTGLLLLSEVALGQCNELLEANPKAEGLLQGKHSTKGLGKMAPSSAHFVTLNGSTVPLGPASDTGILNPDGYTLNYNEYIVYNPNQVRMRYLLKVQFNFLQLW

IC50 ([1]; MDA-MB-436, 72 h, CellTiter-Glo, read-out: MDA-MB-436 IC50): > 100 µM
inhibition at 0.01 µM ([2]; supplement sheet, read-out: 10 nM inhibition% PAPR-1): 22%
inhibition at 0.01 µM ([2]; read-out: PARP-1 Inhibition % (10 nM)): 22%
IC50 ([3]; CAPAN-1, 72 h, CellTiter-Glo, read-out: CAPAN-1 IC50): > 100 µM
inhibition at 0.01 µM ([4]; supplement sheet, read-out: 10 nM inhibition% PAPR-2): 74.6%
inhibition at 0.01 µM ([4]; read-out: PARP-2 Inhibition % (10 nM)): 74.5%
Structure (SMILES): NC(=O)c1cccc2[nH]c(C3CCN(CCCN4C(=O)c5ccccc5C4=O)C3)nc12 (centres unmarked) [Compound 5ce, 2-(1-(3-(1,3-Dioxoisoindolin-2-yl)propyl)pyrrolidin-3-yl)-1H-benzo[d]imidazole-4-carboxamide]
inhibition at 0.00508 µM ([1]; replicate 1, read-out: Inh % 1): 20.1%
inhibition at 0.00508 µM ([1]; replicate 2, read-out: Inh % 2): 0.9%
inhibition at 0.0152 µM ([1]; replicate 1, read-out: Inh % 1): -2.8%
inhibition at 0.0152 µM ([1]; replicate 2, read-out: Inh % 2): -5%
inhibition at 0.0457 µM ([1]; replicate 1, read-out: Inh % 1): -11.2%
inhibition at 0.0457 µM ([1]; replicate 2, read-out: Inh % 2): -11.9%
inhibition at 0.41 µM ([1]; replicate 1, read-out: Inh % 1): -6.1%
inhibition at 0.41 µM ([1]; replicate 2, read-out: Inh % 2): -15.6%
inhibition at 1.23 µM ([1]; replicate 1, read-out: Inh % 1): -8.9%
inhibition at 1.23 µM ([1]; replicate 2, read-out: Inh % 2): -17.5%
inhibition at 3.7 µM ([1]; replicate 1, read-out: Inh % 1): -1.2%
inhibition at 3.7 µM ([1]; replicate 2, read-out: Inh % 2): -9.2%
inhibition at 11.11 µM ([1]; replicate 1, read-out: Inh % 1): 15.7%
inhibition at 11.11 µM ([1]; replicate 2, read-out: Inh % 2): -2.9%
inhibition at 33.33 µM ([1]; replicate 1, read-out: Inh % 1): -10.9%
inhibition at 33.33 µM ([1]; replicate 2, read-out: Inh % 2): -11%
inhibition at 100 µM ([1]; replicate 1, read-out: Inh % 1): 0.113%
inhibition at 100 µM ([1]; replicate 2, read-out: Inh % 2): -9.4%
inhibition at 0.00508 µM ([3]; replicate 1, read-out: Inh % 1): -4.4%
inhibition at 0.00508 µM ([3]; replicate 2, read-out: Inh % 2): 0.4%
inhibition at 0.0152 µM ([3]; replicate 1, read-out: Inh % 1): -2.3%
inhibition at 0.0152 µM ([3]; replicate 2, read-out: Inh % 2): -0.9%
inhibition at 0.0457 µM ([3]; replicate 1, read-out: Inh % 1): 1.8%
inhibition at 0.0457 µM ([3]; replicate 2, read-out: Inh % 2): 10%
inhibition at […] ([3]; replicate 1, read-out: Inh % 1): -0.6%
inhibition at […] ([3]; replicate 2, read-out: Inh % 2): -2.2%
inhibition at 0.41 µM ([3]; replicate 1, read-out: Inh % 1): 12.8%
inhibition at 0.41 µM ([3]; replicate 2, read-out: Inh % 2): 3.7%
inhibition at 1.23 µM ([3]; replicate 1, read-out: Inh % 1): 7.5%
inhibition at 1.23 µM ([3]; replicate 2, read-out: Inh % 2): 3.7%
inhibition at 3.7 µM ([3]; replicate 1, read-out: Inh % 1): 6.8%
inhibition at 3.7 µM ([3]; replicate 2, read-out: Inh % 2): 9.9%
inhibition at 11.11 µM ([3]; replicate 1, read-out: Inh % 1): 13.7%
inhibition at 11.11 µM ([3]; replicate 2, read-out: Inh % 2): -0.541%
inhibition at 33.33 µM ([3]; replicate 1, read-out: Inh % 1): 11%
inhibition at 33.33 µM ([3]; replicate 2, read-out: Inh % 2): 3.9%
inhibition at 100 µM ([3]; replicate 1, read-out: Inh % 1): 6.1%
inhibition at 100 µM ([3]; replicate 2, read-out: Inh % 2): 4.5%
